Reference: patent publication US8557840B2, “Herbicidal compounds” (Syngenta Limited, priority 2008, dated 2013)

Experiments:
Format in all cases: in vivo
test plants = experiment: Herbicidal action, post-emergence (Example B1), all test plants, result in words; conditions: same protocol as Example B1, post-emergence
Experimental: (§1) Seeds of a variety of test species were sown in sterilised standard soil in seed trays each having 96 cells. […] The plants were grown in the climatic chamber after application at (24/19° C., day/night; 13 hours light; 50-60% humidity) and watered twice daily. After 9 days until the test was evaluated (10=total damage to plant, 0=no damage to plant)

Amaranthus retroflexus [1] = experiment: Herbicidal action, post-emergence, pots in glasshouse (Example B2); conditions: 1000 g/ha, evaluated after 13 days, 10=total damage to plant, 0=no damage to plant
Experimental: (§2) Seeds of a variety of test species were sown in standard soil in pots. After 8 days cultivation (post-emergence) under controlled conditions in a glasshouse (at 24/16° C., day/night; 14 hours light; 65% humidity), the plants were sprayed with an aqueous spray solution derived from the formulation of the technical active ingredient in acetone/water (50:50) solution containing 0.5% Tween 20 (polyoxyethelyene sorbitan monolaurate, CAS RN 9005-64-5). The test plants were then grown in a glasshouse under controlled conditions in a glasshouse (at 24/16° C., day/night; 14 hours light; 65% humidity) and watered twice daily. After 13 days, the test was evaluated (10=total damage to plant; 0=no damage to plant).

Echinochloa crus-galli = experiment: as above; conditions: 1000 g/ha, evaluated after 13 days, 10=total damage to plant, 0=no damage to plant
Experimental: as §2

Ipomea hederaceae = experiment: as above; conditions: 1000 g/ha, evaluated after 13 days, 10=total damage to plant, 0=no damage to plant
Experimental: as §2

Setaria faberi = experiment: as above; conditions: 1000 g/ha, evaluated after 13 days, 10=total damage to plant, 0=no damage to plant
Experimental: as §2

Solanum nigrum [2] = experiment: as above; conditions: 1000 g/ha, evaluated after 13 days, 10=total damage to plant, 0=no damage to plant
Experimental: as §2

Amaranthus retroflexus [3] = experiment: Herbicidal action, post-emergence, seed trays in climatic chamber (Example B1); conditions: 1000 g/ha, evaluated after 9 days, 10=total damage to plant, 0=no damage to plant
Experimental: as §1

Nasturtium officinale = experiment: as above; conditions: 1000 g/ha, evaluated after 9 days, 10=total damage to plant, 0=no damage to plant
Experimental: as §1

Solanum nigrum [4] = experiment: as above; conditions: 1000 g/ha, evaluated after 9 days, 10=total damage to plant, 0=no damage to plant
Experimental: as §1

Stellaria media = experiment: as above; conditions: 1000 g/ha, evaluated after 9 days, 10=total damage to plant, 0=no damage to plant
Experimental: as §1

SMILES | damage to the test plants (test plants) | AMARE damage to plant (Amaranthus retroflexus [1]) | ECHCG damage to plant (Echinochloa crus-galli) | IPOHE damage to plant (Ipomea hederaceae) | SETFA damage to plant (Setaria faberi) | SOLNI damage to plant (Solanum nigrum [2]) | other results
O=c1[nH]c2nncnc2c(O)c1-c1c(F)cccc1Cl [E7] | little or no damage |  |  |  |  |  | 
CC(C)C(=O)Oc1c(-c2c(F)ccc(Br)c2Cl)c(=O)n(CC(F)F)c2ncccc12 [D23, isobutyric acid 3-(3-bromo-2-chloro-6-fluoro-phenyl)-1-(2,2-difluoro-ethyl)-2-oxo-1,2-dihydro-[1,8]naphthyridin-4-yl ester] |  | 4 | 1 | 4 | 0 | 9 | 
O=c1[nH]c2nncnc2c(O)c1-c1c(F)ccc(F)c1Cl [E4] |  |  |  |  |  |  | AMARE damage to plant (Amaranthus retroflexus [3]): 2; NAAOF damage to plant (Nasturtium officinale): 0; SOLNI damage to plant (Solanum nigrum [4]): 4; STEME damage to plant (Stellaria media): 0
O=c1[nH]c2ccncc2c(O)c1-c1c(F)ccc(F)c1Cl [B2] | little or no damage |  |  |  |  |  | 
CC(C)(C)C(=O)Oc1c(-c2c(F)ccc(F)c2Cl)c(=O)[nH]c2ccncc12 [B3] | little or no damage |  |  |  |  |  | 
Cn1c(=O)c(-c2c(F)ccc(F)c2Cl)c(OC(=O)C(C)(C)C)c2ccc(Cl)nc21 [D16] |  | 2 | 0 | 2 | 0 | 2 | 
O=c1c(-c2c(F)ccc(F)c2Cl)c(O)c2cccnc2n1CC(F)F [D21, 3-(2-chloro-3,6-difluoro-phenyl)-1-(2,2-difluoro-ethyl)-4-hydroxy-1H-[1,8]naphthyridin-2-one] |  | 10 | 2 | 9 | 1 | 10 | 
O=c1[nH]c2ncncc2c(O)c1-c1c(F)cc(F)cc1F [E10] | little or no damage |  |  |  |  |  | 
Cn1c(=O)c(-c2c(F)ccc(F)c2Cl)c(OC(=O)C(C)(C)C)c2cccnc21 [D9] |  |  |  |  |  |  | AMARE damage to plant (Amaranthus retroflexus [3]): 3; NAAOF damage to plant (Nasturtium officinale): 2; SOLNI damage to plant (Solanum nigrum [4]): 0; STEME damage to plant (Stellaria media): 2
CC(C)(C)C(=O)Oc1c(-c2c(F)ccc(F)c2Cl)c(=O)[nH]c2nc(Cl)ccc12 [D15] | little or no damage |  |  |  |  |  | 
O=c1[nH]c2cnccc2c(O)c1-c1c(F)cc(F)cc1F [C3] | little or no damage |  |  |  |  |  | 
O=c1[nH]c2nnccc2c(O)c1-c1c(F)cccc1Cl [E8] | little or no damage |  |  |  |  |  | 
O=c1[nH]c2ncccc2c(O)c1-c1cccnc1 [D11, 4-Hydroxy-3-pyridin-3-yl-1H-[1,8]naphthyridin-2-one] | little or no damage |  |  |  |  |  | 
O=c1[nH]c2ncc(Br)cc2c(O)c1-c1c(F)cc(F)cc1F [D28] | little or no damage |  |  |  |  |  | 
Cn1c(=O)c(-c2c(F)ccc(F)c2Cl)c(OC(=O)C(C)(C)C)c2ccc(C(F)(F)F)nc21 [D30] |  | 0 | 0 | 2 | 0 | 2 | 
O=c1[nH]c2cccnc2c(O)c1-c1ccccn1 [A8] | little or no damage |  |  |  |  |  | 
Cn1c(=O)c(-c2c(F)ccc(F)c2Cl)c(O)c2ccc(Cl)nc21 [D22] |  | 2 | 1 | 6 | 0 | 4 | 
Cc1cc(C)c(-c2c(O)c3cccnc3n(C)c2=O)c(C)c1 [D24] |  | 0 | 0 | 1 | 0 | 1 | 
COc1cccc(-c2c(O)c3cccnc3[nH]c2=O)c1 [D25] | little or no damage |  |  |  |  |  | 
CC(C)C(=O)Oc1c(-c2c(F)ccc(F)c2Cl)c(=O)n(CC(F)F)c2ncncc12 [E3] |  | 7 | 0 | 1 | 0 | 5 | 
O=c1[nH]c2ncccc2c(O)c1-c1ccc(Cl)cc1Cl [D1, 3-(2,4-dichloro-phenyl)-4-hydroxy-1H-[1,8]naphthyridin-2-one] | little or no damage |  |  |  |  |  | 
O=c1[nH]c2nc(Cl)ccc2c(O)c1-c1c(F)ccc(F)c1Cl [D14] |  | 4 | 4 | 0 | 0 | 0 | 
